Test results taken from patent US10233186B2, “Inhibitors of activin receptor-like kinase” (BLUEPRINT MEDICINES CORPORATION, priority 2016, dated 2019).
Read-outs that look alike come from different tables or passages of the source.

Assays:
human ALK2 R206H = target: T1, human ALK2 R206H (Homo sapiens, UniProt Q04771, R206H); experiment: Cell-based ALK2-R206H cell activity assay (Smad1-Ser463/Ser465 phosphorylation by AlphaLISA in HEK293-ALK2-R206H cells)
T1 construct: expressed in transfected cells; host or cells: HEK293 (ATCC CRL1573), lentivirus transduction, blasticidin selection
T1 sequence (Q04771 21-509 R206H): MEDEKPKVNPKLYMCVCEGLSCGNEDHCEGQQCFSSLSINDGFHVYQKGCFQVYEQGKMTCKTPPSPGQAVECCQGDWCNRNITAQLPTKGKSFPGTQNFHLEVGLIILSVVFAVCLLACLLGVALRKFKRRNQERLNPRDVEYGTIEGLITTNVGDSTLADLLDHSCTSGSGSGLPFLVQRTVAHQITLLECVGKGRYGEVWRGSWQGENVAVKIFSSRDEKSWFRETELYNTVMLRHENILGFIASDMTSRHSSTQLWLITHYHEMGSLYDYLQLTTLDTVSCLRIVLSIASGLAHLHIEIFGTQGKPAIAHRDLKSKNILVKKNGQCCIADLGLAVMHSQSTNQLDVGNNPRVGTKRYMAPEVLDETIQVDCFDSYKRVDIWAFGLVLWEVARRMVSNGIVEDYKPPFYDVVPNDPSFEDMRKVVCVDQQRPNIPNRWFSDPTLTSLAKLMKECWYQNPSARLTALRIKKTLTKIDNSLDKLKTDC
How it was run: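 Stable HEK293 cells expressing C-terminally FLAG-tagged human ALK2 R206H (lentiviral, blasticidin-selected) were treated with compounds in 10-point, 3-fold dilutions from 10 μM or 1 μM top, in duplicate. Smad1 Ser463/Ser465 phosphorylation was read by AlphaLISA.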

[1] = target: T2, ALK2 R206H (GST-tagged mutant ALK2) (Homo sapiens, UniProt Q04771, R206H); experiment: ALK binding assay (LANTHASCREEN TR-FRET competitive binding, displacement of Kinase Tracer 178)
T2 construct: purchased Carna Bioscience or ThermoFisher 09-148 or PV6232
T2 sequence (Q04771 21-509 R206H): T1 sequence (Q04771 21-509 R206H)

[2] = read-out: Cell Line (Cell Assay IC50)
[3] = ALK2 R206H, LANTHASCREEN TR-FRET competitive binding, read-out: Binding Assay (IC50)

| SMILES | IC50 (human ALK2 R206H; [2]) [nM] | IC50 [1, 3] [nM] | IC50 (human ALK2 R206H; Cell Line (Cell Assay IC50)) [nM] | IC50 [1] [nM] |
| --- | --- | --- | --- | --- |
| COC1(c2ccc(-c3cc4c(N5CCN(C(=O)NC(C)C)CC5)ccnn4c3)cc2)CCN(C(C)C)CC1 [Compound 829] | < 100 | < 10 |  |  |
| CCOC(=O)N1CCN(c2ccnn3cc(-c4ccc(C5(OCC)CCN(C(C)C)CC5)cc4)cc23)CC1 [Compound 831] | < 100 | < 10 |  |  |
| CC(C)N1CCC(c2ccc(-c3cc4c(N5CCN(C(=O)SC6COC6)CC5)ccnn4c3)cc2)CC1 [Compound 832] | < 100 | < 10 |  |  |
| COC1(c2ccc(-c3cc4c(N5CCN(C(=O)OC6COC6)CC5)ccnn4c3)nc2)CCNC(C)(C)C1 (centres unmarked) [Compound 833] | < 100 | < 10 |  |  |
| CCOC(=O)N1CCN(c2ccnn3cc(-c4ccc(C5(OC)CCN(C6COC6)CC5)cn4)cc23)CC1 [Compound 834] | < 100 | < 10 |  |  |
| CCOC(=O)N1CCN(c2ccnn3cc(-c4ccc(C5(OCC)CCN(C(C)C)CC5)cn4)cc23)CC1 [Compound 835] | < 100 | < 10 |  |  |
| CC(C)N1CCC(c2ccc(-c3cc4c(N5CCN(C(=O)OC(CO)CO)CC5)ccnn4c3)cc2)CC1 [Compound 836] | 100 to 500 | < 10 |  |  |
| CC(C)N1CCC[C@@H](c2ccc(-c3cc4c(N5CCN(C(=O)OC(CO)CO)CC5)ccnn4c3)cc2)C1 [Compound 837] | 100 to 500 | < 10 |  |  |
| CC(C)N1CCC(c2ccc(-c3cc4c(N5CCN(C(=O)Nc6ccccc6)CC5)ccnn4c3)cc2)CC1 [Compound 838] | 100 to 500 | < 10 |  |  |
| COC1(c2ccc(-c3cc4c(N5CCN(C(=O)C6CC6)CC5)ccnn4c3)c(C#N)c2)CCN(C(C)C)CC1 [Compound 839] | < 100 | < 10 |  |  |
| CC(C)N1CCC[C@@H](c2ccc(-c3cc4c(N5CCN(C(=O)OC6(C#N)COC6)CC5)ccnn4c3)cc2)C1 [Compound 840] | 100 to 500 | < 10 |  |  |
| O=C(OC1COC1)N1CCN(c2ccnn3cc(-c4ccc(C5(C(F)(F)F)CCNCC5)cc4)cc23)CC1 [Compound 843] | < 100 | < 10 |  |  |
| COC1(c2ccc(-c3cc4c(N5CCN(C(=O)NC(C)C)CC5)ccnn4c3)cc2)CCN(C2COC2)CC1 [Compound 844] | < 100 | < 10 |  |  |
| CCOC(=O)N1CCN(c2ccnn3cc(-c4ccc(C5(OCC)CCN(C6COC6)CC5)cn4)cc23)CC1 [Compound 845] | < 100 | < 10 |  |  |
| COC1(c2ccc(-c3cc4c(N5CCN(C(=O)OC6COC6)CC5)ccnn4c3)nc2)CCN(C(C)C)CC1 [Compound 846] | < 100 | < 10 |  |  |
| CC(C)N1CCC(c2ccc(-c3cc4c(N5CCN(C(=O)OC(CO)C(=O)O)CC5)ccnn4c3)cc2)CC1 (centres unmarked) [Compound 847, 3-hydroxy-2-(4-(6-(4-(1-isopropylpiperidin-4-yl)phenyl)pyrrolo[1,2-b]pyridazin-4-yl)piperazine-1-carbonyloxy)propanoic acid] | > 500 | < 10 |  |  |
| CC(C)N1CC[C@H](OC(F)F)[C@@H](c2ccc(-c3cc4c(N5CCN(C(=O)C6CC6)CC5)ccnn4c3)cc2)C1 [Compound 848] | < 100 | < 10 |  |  |
| CC(C)N1CC[C@@H](OC(F)F)[C@H](c2ccc(-c3cc4c(N5CCN(C(=O)C6CC6)CC5)ccnn4c3)cc2)C1 [Compound 849] | < 100 | < 10 |  |  |
| COC1(c2ccc(-c3cc4c(N5CCN(C(=O)NC(C)C)CC5)ccnn4c3)nc2)CCN(C(C)CF)CC1 (centres unmarked) [Compound 850] | < 100 | < 10 |  |  |
| CC(C)N1CCC(c2ccc(-c3cc4c(N5CCN(C(=O)Nc6ccccc6F)CC5)ccnn4c3)cc2)CC1 [Compound 851] | 100 to 500 | < 10 |  |  |
| COC1(c2ccc(-c3cc4c(N5CCN(C(=O)NC(C)C)CC5)ccnn4c3)c(C#N)c2)CCN(C(C)C)CC1 [Compound 852] | < 100 | < 10 |  |  |
| CC(=O)N1CC(OC(=O)N2CCN(c3ccnn4cc(-c5ccc([C@@H]6CCCN(C(C)C)C6)cc5)cc34)CC2)C1 [Compound 853] | 100 to 500 | < 10 |  |  |
| CCOC1(c2ccc(-c3cc4c(N5CCN(C(=O)OCCC#N)CC5)ccnn4c3)nc2)CCN(C(C)C)CC1 [Compound 854] | < 100 | < 10 |  |  |
| CCOC1(c2ccc(-c3cc4c(N5CCN(C(=O)OC6COC6)CC5)ccnn4c3)nc2)CCN(C2CC2)CC1 [Compound 855] | < 100 | < 10 |  |  |
| CCOC1(c2ccc(-c3cc4c(N5CCN(C(=O)NC(C)C)CC5)ccnn4c3)cc2)CCN(C2COC2)CC1 [Compound 856] | < 100 | < 10 |  |  |

| SMILES | IC50 (human ALK2 R206H; [2]) [nM] | IC50 [1, 3] [nM] | IC50 (human ALK2 R206H; Cell Line (Cell Assay IC50)) [nM] | IC50 [1] [nM] |
| --- | --- | --- | --- | --- |
| CCOC1(c2ccc(-c3cc4c(N5CCN(C(=O)OC6COC6)CC5)ccnn4c3)cc2)CCN(C(C)C)CC1 [Compound 857] | < 100 | < 10 |  |  |
| CCOC1(c2ccc(-c3cc4c(N5CCN(C(=O)NC(C)C)CC5)ccnn4c3)nc2)CCN(C2COC2)CC1 [Compound 858] | < 100 | < 10 |  |  |
| CC(C)N1CCC(COC(F)F)(c2ccc(-c3cc4c(N5CCN(C(=O)C6CC6)CC5)ccnn4c3)cc2)CC1 [Compound 859] | < 100 | < 10 |  |  |
| CCOC1(c2ccc(-c3cc4c(N5CCN(C(=O)NC(C)C)CC5)ccnn4c3)nc2)CCN(C(C)CF)CC1 (centres unmarked) [Compound 860] | < 100 | < 10 |  |  |
| CCOC1(c2ccc(-c3cc4c(N5CCN(C(=O)NC(C)C)CC5)ccnn4c3)nc2)CCN(C[C@H](C)F)CC1 [Compound 861] | < 100 | < 10 |  |  |
| COC1(c2ccc(-c3cc4c(N5CCN(C(=O)OC6COC6)CC5)ccnn4c3)nc2)CCN(C(C)CF)CC1 (centres unmarked) [Compound 863] | < 100 | < 10 |  |  |
| CCOC1(c2ccc(-c3cc4c(N5CCN(C(=O)O[C@H](C)CF)CC5)ccnn4c3)nc2)CCN(C(C)C)CC1 [Compound 864] | < 100 | < 10 |  |  |
| CCOC1(c2ccc(-c3cc4c(N5CCN(C(=O)OC[C@H](C)F)CC5)ccnn4c3)nc2)CCN(C(C)C)CC1 [Compound 865] | < 100 | < 10 |  |  |
| CCOC1(c2ccc(-c3cc4c(N5CCN(C(=O)OC[C@@H](C)F)CC5)ccnn4c3)nc2)CCN(C(C)C)CC1 [Compound 867] | < 100 | < 10 |  |  |
| CC(C)NC(=O)N1CCN(c2ccnn3cc(-c4ccc([C@H]5CN(C(C)C)CC[C@@H]5OC(F)F)cc4)cc23)CC1 [Compound 868] | < 100 | < 10 |  |  |
| CC(C)NC(=O)N1CCN(c2ccnn3cc(-c4ccc([C@@H]5CN(C(C)C)CC[C@H]5OC(F)F)cc4)cc23)CC1 [Compound 869] | < 100 | < 10 |  |  |
| COC1(c2ccc(-c3cc4c(N5CCN(C(=O)[C@H]6C[C@H](C#N)C6)CC5)ccnn4c3)nc2)CCN(C2COC2)CC1 [Compound 870] | < 100 | < 10 |  |  |
| CCOC1(c2ccc(-c3cc4c(N5CCN(C(=O)[C@H]6C[C@H](C#N)C6)CC5)ccnn4c3)nc2)CCN(C(C)C)CC1 [Compound 871] | < 100 | < 10 |  |  |
| CCOC1(c2ccc(-c3cc4c(N5CCN(C(=O)OCC(F)F)CC5)ccnn4c3)nc2)CCN(C(C)C)CC1 [Compound 872] | < 100 | < 10 |  |  |
| COC1(c2ccc(-c3cc4c(N5CCN(C(=O)OC6COC6)CC5)ccnn4c3)c(C#N)c2)CCN(C(C)C)CC1 [Compound 873] | < 100 | < 10 |  |  |
| COC(=O)C1(c2ccc(-c3cc4c(N5CCN(C(=O)OC6COC6)CC5)ccnn4c3)cc2)CCN(C(C)C)CC1 [Compound 874] |  |  | 100 to 500 | < 10 |
| CCOC1(c2ccc(-c3cc4c(N5CCN(C(=O)OC6COC6)CC5)ccnn4c3)nc2)CCN(C2COC2)CC1 [Compound 875] | < 100 | < 10 |  |  |
| CCOC1(c2ccc(-c3cc4c(N5CCN(C(=O)O[C@@H]6CCOC6)CC5)ccnn4c3)nc2)CCN(C(C)C)CC1 [Compound 876] | < 100 | < 10 |  |  |
| CCOC1(c2ccc(-c3cc4c(N5CCN(C(=O)O[C@H]6CCOC6)CC5)ccnn4c3)nc2)CCN(C(C)C)CC1 [Compound 877] | < 100 | < 10 |  |  |
| CCOC1(c2ccc(-c3cc4c(N5CCN(C(=O)OC6(C)COC6)CC5)ccnn4c3)nc2)CCN(C(C)C)CC1 [Compound 878] | < 100 | < 10 |  |  |
| CCOC1(c2ccc(-c3cc4c(N5CCN(C(=O)OC6COC6C)CC5)ccnn4c3)nc2)CCN(C(C)C)CC1 (centres unmarked) [Compound 879] | < 100 | < 10 |  |  |
| CCOC1(c2ccc(-c3cc4c(N5CCN(C(=O)OC6COC6)CC5)ccnn4c3)nc2)CCN(CC(C)F)CC1 (centres unmarked) [Compound 880] | < 100 | < 10 |  |  |
| CCOC1(c2ccc(-c3cc4c(N5CCN(C(=O)OC6COC6)CC5)ccnn4c3)nc2)CCN(C[C@H](C)F)CC1 [Compound 882] | < 100 | < 10 |  |  |
| COC1(c2ccc(-c3cc4c(N5CCN(C(=O)C6CC6)CC5)ccnn4c3)cc2)CCN([C@@H](C)COC(F)F)CC1 [Compound 883] | < 100 | < 10 |  |  |
